# Test results published in patent US20050143427A1, “[B]-fused bicyclic proline derivatives and their use for treating arthritic conditions” (priority 2003, published 2005).
# Key:
# [1] = biological target: alpha-2-delta receptor 1 (A2DR1) (Homo sapiens, UniProt P54289); experiment: [3H]Gabapentin A2DR1 binding assay (filter, Biological Method 4); conditions: displacement of [3H]-gabapentin
# Text: (§1) HEK 293 recombinant cells expressing A2DR1 or A2DR2 protein are harvested and washed in phosphate buffered saline (“PBS”). The cells are centrifuged and resuspended in tris(hydroxymethyl)aminomethane-ethylenediaminetetraacetic acid (“Tris-EDTA” or “TE”) buffer containing Roche Complete Protease Inhibitor Cocktail. The cells are homogenized, centrifuged at 3000×g, and the supernatant centrifuged again at 50,000×g. The resulting pellet is resuspended and homogenized in TE. Following determination of A2DR1 or A2DR2 protein concentration, aliquots are stored at −70° C. until the day of testing (membrane preparation may be used for at least 6 months).
# (§2) In one version, the binding assay is set up in a 96-well format using deep-well polypropylene plates. In a total volume of 500 μL, the following additions are made: 250 μL buffer [[…] N-2-hydroxyethylpiperazine-N′-2-ethanesulfonic acid (“HEPES”), pH 7.4], 25 μL [3H]gabapentin (10 nM final concentration), 200 μL thawed tissue membrane preparation from Step (1) (˜40 μg protein), and 25 μL of test compound at 7 test dilutions (for example, 0.001, 0.01, 0.03, 0.1, 0.3, 1.0, and 10 μM concentrations). Non-specific binding for each plate is determined by the addition of 10 μM of pregabalin instead of test compound in a few of the 96 wells. Following incubation for 45 minutes at 21° C., the contents of the wells are filtered under vacuum onto glass filter/B (“GF/B”) filter mats and then washed 4×1 mL with chilled 50 mM tris(hydroxymethyl)aminomethane (“Tris”) HCl, pH 6.9. The mats are placed into plastic pouches, scintillation cocktail is added, the pouches are sealed, and radioactivity for each sample is counted.
# (§3) Specific binding values for each concentration are transformed and then analyzed by a 4-parameter nonlinear regression equation provided by Prism graphics software by Graph Pad to determine IC50 values by conventional means.
# [2] = biological target: T1, alpha-2-delta receptor 2 (A2DR2) (Homo sapiens, UniProt Q9NY47); experiment: [3H]Gabapentin A2DR2 binding assay (filter, Biological Method 4); conditions: displacement of [3H]-gabapentin
# T1 construct: expressed in transfected cells; host or cells: HEK 293 (membrane preparation)
# T1 sequence (Q9NY47 19-1150): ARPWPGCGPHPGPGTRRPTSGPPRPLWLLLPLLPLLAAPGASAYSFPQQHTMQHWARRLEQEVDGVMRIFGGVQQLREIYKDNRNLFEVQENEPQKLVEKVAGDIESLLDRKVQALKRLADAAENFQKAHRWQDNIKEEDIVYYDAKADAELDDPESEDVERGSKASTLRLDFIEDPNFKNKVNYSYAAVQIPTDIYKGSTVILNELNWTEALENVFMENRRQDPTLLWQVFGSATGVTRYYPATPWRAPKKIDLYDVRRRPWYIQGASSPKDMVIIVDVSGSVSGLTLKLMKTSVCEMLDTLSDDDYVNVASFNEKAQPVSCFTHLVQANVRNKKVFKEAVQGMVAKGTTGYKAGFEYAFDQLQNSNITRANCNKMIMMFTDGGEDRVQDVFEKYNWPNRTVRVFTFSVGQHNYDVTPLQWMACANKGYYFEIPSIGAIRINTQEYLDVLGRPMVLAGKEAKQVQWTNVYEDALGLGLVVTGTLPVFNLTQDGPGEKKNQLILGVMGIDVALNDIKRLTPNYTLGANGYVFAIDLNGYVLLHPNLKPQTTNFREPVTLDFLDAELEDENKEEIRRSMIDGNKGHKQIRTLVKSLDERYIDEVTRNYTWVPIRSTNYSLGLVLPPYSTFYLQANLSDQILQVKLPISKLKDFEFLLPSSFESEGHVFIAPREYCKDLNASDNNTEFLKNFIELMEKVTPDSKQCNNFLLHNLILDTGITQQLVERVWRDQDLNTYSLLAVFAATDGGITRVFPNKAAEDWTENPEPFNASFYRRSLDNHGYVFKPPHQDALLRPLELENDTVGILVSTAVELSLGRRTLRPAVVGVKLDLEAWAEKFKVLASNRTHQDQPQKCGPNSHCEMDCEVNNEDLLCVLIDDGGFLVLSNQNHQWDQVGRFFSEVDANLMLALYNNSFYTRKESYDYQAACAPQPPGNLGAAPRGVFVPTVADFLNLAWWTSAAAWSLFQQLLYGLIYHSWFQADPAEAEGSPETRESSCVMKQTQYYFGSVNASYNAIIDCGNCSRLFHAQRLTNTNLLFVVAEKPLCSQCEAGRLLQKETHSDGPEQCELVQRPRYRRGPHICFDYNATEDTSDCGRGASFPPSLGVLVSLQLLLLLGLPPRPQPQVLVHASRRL
# Text: as §1, §2, §3
# [3] = biological target: pig alpha-2-delta receptor 2 (A2DR2) (UniProt A0A8W4FF87); experiment: [3H]Gabapentin scintillant proximity A2DR2 binding assay (A2DR2 SPA, Biological Method 5); conditions: displacement of [3H]-gabapentin
# Method: (§4) Recombinant HEK 293 cells expressing pig A2DR1 and A2DR2 subunits were grown under normal cell culture conditions (RPMI-1640 media with 10% FBS, 200 μg G418, and 1% penicillin/streptomycin 1t 37° C. with 5% CO2) until reaching confluency in T-75 flasks, at which time they were harvested. The harvested cells were suspended in ice-cold 5 mM Tris/5 mM ethylenediaminetetraacetic acid (“EDTA”) buffer, pH 7.4 (“TE buffer”) containing phenylmethylsulfonyl fluoride (“PMSF”) (0.1 mM) and Roche Complete Protease Inhibitor Cocktail, and allowed to sit on ice for 30 minutes. The cells were broken by sonication using 20 bursts, 40-50 cycles, and then centrifuged at 3000×g for 10 minutes. The resulting supernatant was transferred to a new tube and centrifuged at 50,000×g for 30 minutes. The resulting pellet was resuspended in 10 mM HEPES buffer, pH 7.4, homogenized, and stored at—80° C. The A2DR1 or A2DR2 membrane protein concentration was determined by the Pierce BCA method using bovine serum albumin (“BSA”) as the standard.
# (§5) The [^3H]gabapentin SPA binding assay was performed in Costar 3632 96-well, clear bottom assay plates using Wheatgerm agglutinin beads (Amersham Pharmacia Biotech). Pig A2DR1 or A2DR2 membranes (10-20 μg protein per well) prepared above in Step (1) and SPA beads (0.5 mg per well) were mixed with 30 nM [^3H]gabapentin (52 Ci/mmol; Amersham Pharmacia Biotech) in 10 mM HEPES/10 mM MgSO4 assay buffer, pH 7.4 using KOH. The final well volume was 200 μL and non-specific binding was determined in the presence of 10 μM unlabeled pregabalin. The final mixture containing A2DR1 or A2DR2 membrane protein incubated with SPA beads, test compounds, and [^3H]gabapentin was incubated at room temperature for 15-24 hours, and the plates were then counted on a Wallace Trilux 1450 Microbeta scintillation counter. Step (3): Determination of IC50 values
# (§6) Curve fitting and IC50 values were calculated using a four-parameter, non-linear regression equation from GraphPad Prism 3.0 software, while Ki values were determined using the equation of Chang and Prussoff.
# [4] = biological target: pig alpha-2-delta receptor 1 (A2DR1) (Sus scrofa, UniProt A0A287BIN3); experiment: [3H]Gabapentin scintillant proximity A2DR1 binding assay (A2DR1 SPA, Biological Method 5); conditions: displacement of [3H]-gabapentin
# pig alpha-2-delta receptor 1 (A2DR1), sequence (A0A287BIN3 1-1109): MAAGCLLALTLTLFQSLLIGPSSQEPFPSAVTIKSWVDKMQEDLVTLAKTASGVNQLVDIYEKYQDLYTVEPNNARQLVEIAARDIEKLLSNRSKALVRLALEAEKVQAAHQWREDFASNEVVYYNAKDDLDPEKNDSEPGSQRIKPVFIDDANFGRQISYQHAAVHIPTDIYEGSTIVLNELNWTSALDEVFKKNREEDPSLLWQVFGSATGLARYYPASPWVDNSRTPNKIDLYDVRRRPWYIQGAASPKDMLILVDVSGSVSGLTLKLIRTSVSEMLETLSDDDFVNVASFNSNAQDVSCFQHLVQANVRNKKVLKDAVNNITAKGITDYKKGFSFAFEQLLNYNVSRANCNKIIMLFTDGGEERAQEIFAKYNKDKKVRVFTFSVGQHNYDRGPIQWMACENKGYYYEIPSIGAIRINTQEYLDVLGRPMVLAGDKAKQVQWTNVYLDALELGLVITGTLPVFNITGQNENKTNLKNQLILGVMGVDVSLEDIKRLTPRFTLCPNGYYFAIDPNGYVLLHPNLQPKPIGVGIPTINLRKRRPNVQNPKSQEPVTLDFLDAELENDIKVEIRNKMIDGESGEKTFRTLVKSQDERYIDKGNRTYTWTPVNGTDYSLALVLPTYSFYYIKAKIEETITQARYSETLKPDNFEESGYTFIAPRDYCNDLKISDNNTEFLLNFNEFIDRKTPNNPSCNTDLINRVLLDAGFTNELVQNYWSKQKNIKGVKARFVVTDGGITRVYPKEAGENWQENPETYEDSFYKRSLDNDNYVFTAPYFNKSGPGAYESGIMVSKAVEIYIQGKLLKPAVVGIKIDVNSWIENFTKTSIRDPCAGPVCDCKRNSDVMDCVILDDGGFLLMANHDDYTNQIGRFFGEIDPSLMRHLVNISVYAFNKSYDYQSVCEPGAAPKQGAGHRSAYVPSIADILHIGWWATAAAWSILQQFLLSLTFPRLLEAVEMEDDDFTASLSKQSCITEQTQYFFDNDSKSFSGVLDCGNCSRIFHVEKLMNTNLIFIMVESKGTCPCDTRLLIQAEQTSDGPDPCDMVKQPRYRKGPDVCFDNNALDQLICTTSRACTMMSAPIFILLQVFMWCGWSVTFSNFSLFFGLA
# Method: as §4, §5, §6
# [5] = test system: MIA Rat (monosodium iodoacetate-induced osteoarthritis, right knee joint); experiment: Monosodium iodoacetate-induced osteoarthritis in rat model of joint cartilage damage (MIA Rat); assay type: in vivo; conditions: 10 mg/kg/day via osmotic pump, 2-week MIA study, Day 14, rat
# Text: One end result of the induction of osteoarthritis in this model, as determined by histologic analysis, is the development of an osteoarthritic condition within the affected joint, as characterized by the loss of Toluidine blue staining and formation of osteophytes. Associated with the histologic changes is a concentration-dependent degradation of joint cartilage, as evidenced by affects on hind-paw weight distribution of the limb containing the affected joint, the presence of increased amounts of proteoglycan or hydroxyproline in the joint upon biochemical analysis, or histopathological analysis of the osteoarthritic lesions.
# The invention compounds typically are not effective for relieving joint pain when administered in an acute model, such as the instant MIA Rat model, which has a duration of just 14 or 28 days.
# Generally, In the MIA Rat model on Day 0, the hind-paw weight differential between the right arthritic joint and the left healthy joint of male Wistar rats (150 g) are determined with an incapacitance tester, model 2KG (Linton Instrumentation, Norfolk, United Kingdom). The incapacitance tester has a chamber on top with an outwardly sloping front wall that supports a rat's front limbs, and two weight sensing pads, one for each hind paw, that facilitates this determination. Then the rats are anesthetized with isofluorine, and the right, hind leg knee joint is injected with 1.0 mg of mono-iodoacetate (“MIA”) through the infrapatellar ligament. Injection of MIA into the joint results in the inhibition of glycolysis and eventual death of surrounding chondrocytes. The rats are further administered either an invention compound or vehicle (in the instant case, water) daily for 14 days or 28 days.
# The invention compound is typically administered at a dose of 30 mg of per kilogram of rat per day (30 mg/kg/day), but may be administered at other doses such as, for example, 10 mg/kg/day, 60 mg/kg/day, 90-mg/kg/day, or 100 mg/kg/day according to the requirements of the invention compound being studied. It is well within the level of ordinary skill in the pharmaceutical arts to determine a proper dosage of an invention compound in this model.
# Administration of an invention compound in this model is optionally by oral administration or by intravenous administration via an osmotic pump. After 7 and 14 days for a two week study, or 7, 14, and 28 days for a four week study, the hind-paw weight distribution is again determined. Typically, the animals administered vehicle alone place greater weight on their unaffected left hind paw than on their right hind paw, while animals administered an invention compound show a more normal (i.e., more like a healthy animal) weight distribution between their hind paws. This change in weight distribution was proportional to the degree of joint cartilage damage. Percent inhibition of a change in hind paw joint function is calculated as the percent change in hind-paw weight distribution for treated animals versus control animals. For example, for a two week study, [formula] wherein: ΔWC is the hind-paw weight differential between the healthy left limb and the arthritic limb of the control animal administered vehicle alone, as measured on Day 14; and • ΔWG is the hind-paw weight differential between the healthy left limb and the arthritic limb of the animal administered an invention compound as measured on Day 14.
# In order to measure biochemical or histopathological end points in the MIA Rat model, some of the animals in the above study may be sacrificed, and the amounts of free proteoglycan in both the osteoarthritic right knee joint and the contralateral left knee joint may be determined by biochemical analysis. The amount of free proteoglycan in the contralateral left knee joint provides a baseline value for the amount of free proteoglycan in a healthy joint. […]
# alpha-2-delta receptor 1 (A2DR1), sequence (P54289 25-1103): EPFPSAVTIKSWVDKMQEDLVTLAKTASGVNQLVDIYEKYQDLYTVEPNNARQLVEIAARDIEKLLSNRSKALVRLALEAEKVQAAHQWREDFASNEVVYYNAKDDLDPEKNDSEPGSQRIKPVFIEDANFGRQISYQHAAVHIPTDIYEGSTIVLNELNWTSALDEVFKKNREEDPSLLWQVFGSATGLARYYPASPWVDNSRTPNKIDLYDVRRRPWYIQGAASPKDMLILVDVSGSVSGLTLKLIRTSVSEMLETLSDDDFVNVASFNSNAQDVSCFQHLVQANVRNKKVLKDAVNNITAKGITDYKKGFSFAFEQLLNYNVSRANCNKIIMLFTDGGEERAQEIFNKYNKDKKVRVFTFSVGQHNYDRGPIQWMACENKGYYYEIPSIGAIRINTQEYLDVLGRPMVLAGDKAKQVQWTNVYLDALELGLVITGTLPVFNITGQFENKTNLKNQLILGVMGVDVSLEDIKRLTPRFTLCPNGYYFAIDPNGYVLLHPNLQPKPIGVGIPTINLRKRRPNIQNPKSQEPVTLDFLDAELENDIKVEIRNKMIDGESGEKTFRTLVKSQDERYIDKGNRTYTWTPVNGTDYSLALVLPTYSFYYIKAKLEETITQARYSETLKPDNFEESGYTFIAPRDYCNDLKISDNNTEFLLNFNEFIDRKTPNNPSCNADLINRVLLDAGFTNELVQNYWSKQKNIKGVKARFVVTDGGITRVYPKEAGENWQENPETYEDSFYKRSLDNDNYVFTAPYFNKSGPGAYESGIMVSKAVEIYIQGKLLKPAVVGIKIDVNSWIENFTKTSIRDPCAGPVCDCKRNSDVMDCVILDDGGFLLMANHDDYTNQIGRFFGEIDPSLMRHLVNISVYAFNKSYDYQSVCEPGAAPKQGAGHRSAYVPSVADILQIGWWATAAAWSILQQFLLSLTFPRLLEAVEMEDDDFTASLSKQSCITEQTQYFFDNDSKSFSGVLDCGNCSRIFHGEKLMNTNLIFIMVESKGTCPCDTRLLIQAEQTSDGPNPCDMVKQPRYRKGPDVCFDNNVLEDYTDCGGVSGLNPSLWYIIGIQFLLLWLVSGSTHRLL
Structure (SMILES),IC50 [1] [µM],IC50 [2] [µM],IC50 [3] [µM],IC50 [4] [µM],% I @ 10 mg/kg/day (%) (± SEM): inhibition of loss of hind limb joint function in MIA at Day 14 [5],melting point
CC1(C(=O)O)C[C@@H]2CCCC[C@@H]2N1 (mixture of isomers) [Example B2],2.83,≥ 10,≥ 10,≥ 10,58 ± 12,–
NC1CCC2NC(C(=O)O)CC2C1 (stereo not drawn) [Example O7],≥ 10,≥ 10,–,–,−63 ± 14,–
CC1CCC2NC(C(=O)O)CC2C1 (stereo not drawn) [Example O5],0.11,0.29,≥ 10,2.8,−32 ± 20,–
CN(C)CCOC(=O)[C@@H]1C[C@@H]2CCCC[C@@H]2N1.Cl,–,–,–,–,–,189 to 195 °C
O=C(NS(=O)(=O)C(F)(F)F)[C@@H]1C[C@@H]2CCCC[C@@H]2N1 [Example E3],≥ 10,≥ 10,–,–,–,247 to 249 °C
CN1C(C(=O)O)C[C@@H]2CCCC[C@@H]21 (mixture of isomers) [Example A4],–,≥ 10,≥ 10,≥ 10,67 ± 8,–
O=C(NC1CCC2NC(C(=O)O)CC2C1)C1CCCCC1 (stereo not drawn) [Example O6],≥ 10,≥ 10,–,–,−48 ± 10,–
O=C(O)[C@@H]1C[C@H]2CCC(c3ccccc3)C[C@H]2N1 (stereo partly drawn),–,–,–,–,–,200 to 205 °C
CN1[C@H](C(=O)NS(=O)(=O)C(F)(F)F)C[C@@H]2CCCC[C@@H]21 [Example E4],≥ 10,≥ 10,–,–,–,189 to 192 °C
C1CC[C@@H]2N[C@H](c3nnn[nH]3)C[C@@H]2C1,–,–,–,–,–,240 °C (dec.)
CCC1CC[C@@H]2C[C@@H](C(=O)O)N[C@@H]2C1.Cl (stereo partly drawn),–,–,–,–,–,188 to 190 °C
